Earlier results as cited in patent publication US20030092774A1, “Methods for treating neoplastic, angiogenic, vascular, fibroblastic, and/or immunosuppressive iregularities of the eye and/or joint via administration of combretastatin based medicaments, and iontophoretic devices for delivering combretastatin based medicaments” (priority 2001, published 2003).

## COc1ccc(/C=C\c2cc(OC)c(OC)c(OC)c2)cc1O [combretastatin-A4, (cis)-1-(3′,4′,5′,-trimethoxyphenyl)-2-(3 ″-hydroxy-4″-methoxyphenyl)ethene]
  solubility in aqueous solution: practically insoluble
